Earlier results in patent US10941351B2, “Layer-separation method of spent caustic solution” (SK Innovation Co., Ltd., priority 2016, dated 2021).

Conditions: at 25° C.

- Water solubility: 460 µg/mL
Compound: CCCCCCCCO [n-Octanol, n-octanol]
